Measurements: patent US4336243A, “Transdermal nitroglycerin pad” (G. D. Searle & Co., priority 1981, dated 1982)

What was measured:
[1] = Effect of added hydrophobic solvents on nitroglycerin transport and delivery; conditions: miglyol oil 812 and isopropyl palmitate alone, or with mineral oil, added to the hydrophilic solvent system in the polymer matrix
[2] = Percutaneous absorption of C^14 nitroglycerin, neat liquid application (urinary radioactivity); format: in vivo, rhesus monkey (Macaca mulata); conditions: for Percent Dose Absorbed (Mean + SEM): neat liquid
Description: Studies to determine the topical availability of nitroglycerin were carried out in vivo with the rhesus monkey (Macaca mulata).
The animals were placed in metabolism chairs for the length of time of the dose application. Urine was collected while the animals were still in the metabolism chairs. After the dose was removed, the animals were moved to a metabolism cage for continued urine collection.
Nitroglycerin, labeled with carbon-14, was applied to the skin. The site of application can be any part of the body; however, the ventral forearm or upper part of the inner arm was used for convenience. The area of application is generally small, i.e., 2-10 cm^2; however, any area can be used. The final concentration is expressed as an amount per unit area of skin (i.e. 1.0 mg/1 cm^2).
In the case of liquid, cream or ointment formulations, the dose was spread over the exact skin area. In the case of the pads of the present invention, they were taped to the skin. In the case of liquids, cream or ointments, the treated area was covered with aluminum foil and tape. In all cases, the tape and foil and where applicable the nitroglycerin pads were removed after 24 hours and the site of application was wiped three times with gauze soaked with ethanol, then washed with soap and water.
Absorption is quantified on the basis of the percent of radioactivity excreted in urine for 3 days following application of a known amount of the labeled nitroglycerin to the skin. Daily urinary excretion values are collected for excretion of radioactivity by other routes and retention of radioactivity in the body by the administration of an intravenous dose of C^14 -labeled nitroglycerin according to the following formula: [formula]
In the case of C^14 -labeled nitroglycerin applied via the nitroglycerin pad of the present invention, the device can be removed from the skin and analyzed for residual radioactivity. The amount of radioactivity which has been removed from the device, by comparative assays with devices not applid to skin, is considered to have been released in vivo during the time of skin application. Analysis for radioactivity can be conducted using any commercially available liquid scintillation counter. To determine the amount of radioactivity in this study, 1.0 ml of radioactive urine was mixed with scintillation fluid (10 ml of PCS solubilizer, Amersham Corporation, Arlington Heights, Ill.). The urine mixed with scintillant is counted for radioactivity in a liquid scintillation counter and the amount of radioactivity determined.

In the case of `O=[N+]([O-])OCC(CO[N+](=O)[O-])O[N+](=O)[O-]` [C^14 Nitroglycerin, nitroglycerin], the drug delivery [1] is reported as “increased”, the drug transport [1] is reported as “greatly enhanced” and the “Percent Dose Absorbed (Mean + SEM)” value ([2]; topical concentration 0.01 mg/cm^2, 24 hours) is reported as 41.8 ± 3.2%. The “Percent Dose Absorbed (Mean + SEM)” value ([2]; topical concentration 0.1 mg/cm^2, 24 hours) was 43.5 ± 3.3%, the “Percent Dose Absorbed (Mean + SEM)” value ([2]; topical concentration 1.0 mg/cm^2, 24 hours) was 36.6 ± 3.7% and the “Percent Dose Absorbed (Mean + SEM)” value ([2]; topical concentration 7.0 mg/cm^2, 24 hours) was 22.6 ± 4.2%. The “Percent Dose Absorbed (Mean + SEM)” value ([2]; topical concentration 10.0 mg/cm^2, 24 hours) was 7.8 ± 0.7%, the absorption ([2]; topical concentrations of 7 and 10 mg/cm^2) was “decreased absorption” and the “maximum optimum dosage for good bioavailability” value ([2]; topical, neat nitroglycerin) was 5 mg/cm^2.
